# Assay results from patent publication US9458414B2, “Cleaning, surfactant, and personal care compositions” (SEGETIS, INC., priority 2012, dated 2016).
# Experiments:
# [1] = Vanillin composition in ketal alcohol (1a); format: physicochemical; details: 75% ketal alcohol (1a) to 25% vanillin by weight, room temperature
# Procedure: Vanillin was dissolved into the ketal alcohol (1a) at room temperature using 75% ketal alcohol (1a) to 25% vanillin by weight.
# [2] = Hair dye active solubility testing
# Procedure: Two component mixtures using ketal alcohol (1a) and the actives shown in Table 13 were prepared by mixing the components at various proportions in a vial at room temperature and then heating in a lab oven at 80° C. for 10 minutes and then shaking.
# Comparative formulations using EtLGK and ketal alcohol (1a) are shown below in Tables 14 and 15.
# [3] = Hard surface cleaning formulation pH testing over 7 days; format: physicochemical; details: 5 g solvent per 100 g
# Procedure: Formulations were prepared by combining ingredients and mixing until homogeneous. Next, pH measurements were taken over 7 days.
# [4] = Hard surface cleaning formulation freeze-thaw testing; format: physicochemical; details: for Freeze-thaw visual observation: Example 5 formulation containing the solvent, 0° C. freezer >12 hours, thaw to room temperature
# Procedure: Formulations as in Example 5 were prepared by combining ingredients and mixing until homogeneous. Freeze-thaw testing was performed over 3 cycles. Each cycle was putting the formulations into a 0° C. freezer for greater than 12 hours, then taking them out and allowing the samples to thaw to room temperature and then making the visual observation.
# [5] = Coupling of water and castor oil by hydrotropes; format: physicochemical
# [6] = Coupling of water and octanoic acid by hydrotropes (amount producing a single phase); format: physicochemical
# Procedure: Hydrotropes were added to a two-component mixture of octanoic acid and deionized (DI) water to find the amount that produced a single phase from the two separate phases of water and octanoic acid.
# The percent hydrotrope required to compatibilize phases (and the resulting percent octanoic acid) were calculated and the results are shown in Table 4 as well as FIG. 1.
# [7] = Coupling of water and soy methyl ester by hydrotropes; format: physicochemical
# Procedure: Hydrotropes were added to a two-component mixture of soy methyl ester and DI water to find the amount that produced a single phase from the two separate phases of water and soy methyl ester. The percent hydrotrope required to compatibilize the phases was calculated.
# [8] = Hard surface cleaning formulation heat cloud point testing; format: physicochemical; details: Example 5 formulation containing the solvent; for Cloud point: heated while mixing
# Procedure: Formulations as in Example 5 were prepared by combining ingredients and mixing until homogeneous.
# [9] = ratio of water to castor oil 10:90
# [10] = ratio of water to castor oil 30:70
# [11] = ratio of water to castor oil 50:50
# [12] = ratio of water to castor oil 70:30
# [13] = ratio of water to castor oil 90:10
# [14] = ratio of water:octanoic acid 10:90
# [15] = ratio of water:octanoic acid 30:70
# [16] = ratio of water:octanoic acid 50:50
# [17] = ratio of water:octanoic acid 70:30
# [18] = ratio of water:octanoic acid 90:10
# [19] = water:octanoic acid 10:90 (DI water 0.5 g, octanoic acid 4.5 g)
# [20] = water:octanoic acid 30:70 (DI water 1.5 g, octanoic acid 3.5 g)
# [21] = water:octanoic acid 50:50 (DI water 5.0 g, octanoic acid 5.0 g)
# [22] = water:octanoic acid 70:30 (DI water 3.5 g, octanoic acid 1.5 g)
# [23] = water:octanoic acid 90:10 (DI water 4.5 g, octanoic acid 0.5 g)
# [24] = ratio of water:soy methyl esters 10:90
# [25] = ratio of water:soy methyl esters 30:70
# [26] = ratio of water:soy methyl esters 50:50
# [27] = ratio of water:soy methyl esters 70:30
# [28] = ratio of water:soy methyl esters 90:10
compound,measurement,setting,value
COc1cc(C=O)ccc1O [Vanillin],Appearance of mixture in ketal alcohol (1a),[1],homogeneous clear liquid with no signs of precipitate
Nc1ccc(N)cc1 [p-phenylene diamine],Ketal Alcohol (1a) Solubility,"[2]; Table 15, weight percentage active 1%",insoluble
same,Ketal Alcohol (1a) Solubility,"[2]; weight percentage active 1%, 80° C. 10 minutes, shaking, room temperature 24 hours",soluble
same,EtLGK Solubility,[2]; weight percentage active 5% in EtLGK,soluble
same,Ketal Alcohol (1a) Solubility,"[2]; weight percentage active 5%, 80° C. 10 minutes, shaking, room temperature 24 hours",soluble
same,Ketal Alcohol (1a) Solubility,"[2]; weight percentage active 10%, 80° C. 10 minutes, shaking, room temperature 24 hours",insoluble
CCOC(=O)CCC1(C)OCC(CO)O1 (centres unmarked) [Ketal alcohol (1a)],pH stability of the formulation containing the solvent,[3],maintained the same pH as the formulation containing 2-butoxyethanol and the control formulation
"CCOC(=O)CCC1(C)OCC(CO)O1 (centres unmarked) [EtLGK, glycerol ketal of ethyl levulinic acid]",Freeze-thaw visual observation,[4]; Cycle 1,stable;
same,Freeze-thaw visual observation,[4]; Cycle 2,gradient;
same,Freeze-thaw visual observation,[4]; Cycle 3,gradient;
same,Wt % Castor oil (at compatibilization),[5]; [9],35%
same,Wt % Hydrotrope required to compatibilize phases,[5]; [9],61%
same,Wt % Castor oil (at compatibilization),[5]; [10],17%
same,Wt % Hydrotrope required to compatibilize phases,[5]; [10],76%
same,Wt % Castor oil (at compatibilization),[5]; [11],9%
same,Wt % Hydrotrope required to compatibilize phases,[5]; [11],82%
same,Wt % Castor oil (at compatibilization),[5]; [12],4%
same,Wt % Hydrotrope required to compatibilize phases,[5]; [12],86%
same,Wt % Castor oil (at compatibilization),[5]; [13],1%
same,Wt % Hydrotrope required to compatibilize phases,[5]; [13],85%
same,Wt % Hydrotrope required to compatibilize phases,[6]; [14],38%
same,"Wt % Octanoic Acid (resulting, at compatibilization)",[6]; [14],55%
same,Wt % Hydrotrope required to compatibilize phases,[6]; [15],59%
same,"Wt % Octanoic Acid (resulting, at compatibilization)",[6]; [15],29%
same,Wt % Hydrotrope required to compatibilize phases,[6]; [16],69%
same,"Wt % Octanoic Acid (resulting, at compatibilization)",[6]; [16],15%
same,Wt % Hydrotrope required to compatibilize phases,[6]; [17],66%
same,"Wt % Octanoic Acid (resulting, at compatibilization)",[6]; [17],10%
same,Wt % Hydrotrope required to compatibilize phases,[6]; [18],58%
same,"Wt % Octanoic Acid (resulting, at compatibilization)",[6]; [18],4%
same,Amount of hydrotrope that produced a single phase,[6]; [19],3.11 grams
same,Amount of hydrotrope that produced a single phase,[6]; [20],7.2 grams
same,Amount of hydrotrope that produced a single phase,[6]; [21],22.68 grams
same,Amount of hydrotrope that produced a single phase,[6]; [22],9.79 grams
same,Amount of hydrotrope that produced a single phase,[6]; [23],6.84 grams
same,Wt % Hydrotrope required to compatibilize the phases,[7]; [24],78%
same,Wt % Soy Methyl Esters (at compatibilization),[7]; [24],20%
same,Wt % Hydrotrope required to compatibilize the phases,[7]; [25],83%
same,Wt % Soy Methyl Esters (at compatibilization),[7]; [25],12%
same,Wt % Hydrotrope required to compatibilize the phases,[7]; [26],86%
same,Wt % Soy Methyl Esters (at compatibilization),[7]; [26],7%
same,Wt % Hydrotrope required to compatibilize the phases,[7]; [27],86%
same,Wt % Soy Methyl Esters (at compatibilization),[7]; [27],4%
same,Wt % Hydrotrope required to compatibilize the phases,[7]; [28],84%
same,Wt % Soy Methyl Esters (at compatibilization),[7]; [28],2%
same,Cloudiness on heating,[8],showed no signs of cloudiness
same,Cloud point,[8],>100 °C
same,pH stability of the formulation containing the solvent,[3],underwent significant pH drift downward
CC1COC(C)(CCCO)O1 (centres unmarked) [Ketal alcohol (1a)],Freeze-thaw visual observation,[4]; Cycle 1,stable;
same,Freeze-thaw visual observation,[4]; Cycle 2,gradient;
same,Freeze-thaw visual observation,[4]; Cycle 3,gradient;
same,Freeze-thaw performance overall,"[4]; formulation containing the solvent, 3 cycles",performed similarly to or better than the 2-butoxyethanol
same,Wt % Castor oil (at compatibilization),[5]; [9],32%
same,Wt % Hydrotrope required to compatibilize phases,[5]; [9],64%
same,Wt % Castor oil (at compatibilization),[5]; [10],21%
same,Wt % Hydrotrope required to compatibilize phases,[5]; [10],71%
same,Wt % Castor oil (at compatibilization),[5]; [11],11%
same,Wt % Hydrotrope required to compatibilize phases,[5]; [11],79%
same,Wt % Castor oil (at compatibilization),[5]; [12],5%
same,Wt % Hydrotrope required to compatibilize phases,[5]; [12],82%
same,Wt % Castor oil (at compatibilization),[5]; [13],2%
same,Wt % Hydrotrope required to compatibilize phases,[5]; [13],84%
same,Wt % Hydrotrope required to compatibilize phases,[6]; [14],31%
same,"Wt % Octanoic Acid (resulting, at compatibilization)",[6]; [14],62%
same,Wt % Hydrotrope required to compatibilize phases,[6]; [15],53%
same,"Wt % Octanoic Acid (resulting, at compatibilization)",[6]; [15],33%
same,Wt % Hydrotrope required to compatibilize phases,[6]; [16],54%
same,"Wt % Octanoic Acid (resulting, at compatibilization)",[6]; [16],23%
same,Wt % Hydrotrope required to compatibilize phases,[6]; [17],55%
same,"Wt % Octanoic Acid (resulting, at compatibilization)",[6]; [17],14%
same,Wt % Hydrotrope required to compatibilize phases,[6]; [18],46%
same,"Wt % Octanoic Acid (resulting, at compatibilization)",[6]; [18],5%
same,Amount of hydrotrope that produced a single phase,[6]; [19],2.27 grams
same,Amount of hydrotrope that produced a single phase,[6]; [20],5.63 grams
same,Amount of hydrotrope that produced a single phase,[6]; [21],11.81 grams
same,Amount of hydrotrope that produced a single phase,[6]; [22],6.07 grams
same,Amount of hydrotrope that produced a single phase,[6]; [23],4.33 grams
same,Wt % Hydrotrope required to compatibilize the phases,[7]; [24],58%
same,Wt % Soy Methyl Esters (at compatibilization),[7]; [24],38%
same,Wt % Hydrotrope required to compatibilize the phases,[7]; [25],73%
same,Wt % Soy Methyl Esters (at compatibilization),[7]; [25],19%
same,Wt % Hydrotrope required to compatibilize the phases,[7]; [26],81%
same,Wt % Soy Methyl Esters (at compatibilization),[7]; [26],10%
same,Wt % Hydrotrope required to compatibilize the phases,[7]; [27],83%
same,Wt % Soy Methyl Esters (at compatibilization),[7]; [27],5%
same,Wt % Hydrotrope required to compatibilize the phases,[7]; [28],81%
same,Wt % Soy Methyl Esters (at compatibilization),[7]; [28],2%
same,Cloudiness on heating,[8],showed no signs of cloudiness
same,Cloud point,[8],>100 °C
